What was measured:
[1] = molecular target: T1, recombinant GBA enzyme (human GBA1) (Homo sapiens, UniProt P04062); experiment: Evaluation of human GBA1 enzyme inhibitory activity (4-MUG substrate); assay type: biochemical; details: pH5.2, 37° C. 60 min, read-out: GBA1 inhibition IC50
T1 sequence (P04062 40-536): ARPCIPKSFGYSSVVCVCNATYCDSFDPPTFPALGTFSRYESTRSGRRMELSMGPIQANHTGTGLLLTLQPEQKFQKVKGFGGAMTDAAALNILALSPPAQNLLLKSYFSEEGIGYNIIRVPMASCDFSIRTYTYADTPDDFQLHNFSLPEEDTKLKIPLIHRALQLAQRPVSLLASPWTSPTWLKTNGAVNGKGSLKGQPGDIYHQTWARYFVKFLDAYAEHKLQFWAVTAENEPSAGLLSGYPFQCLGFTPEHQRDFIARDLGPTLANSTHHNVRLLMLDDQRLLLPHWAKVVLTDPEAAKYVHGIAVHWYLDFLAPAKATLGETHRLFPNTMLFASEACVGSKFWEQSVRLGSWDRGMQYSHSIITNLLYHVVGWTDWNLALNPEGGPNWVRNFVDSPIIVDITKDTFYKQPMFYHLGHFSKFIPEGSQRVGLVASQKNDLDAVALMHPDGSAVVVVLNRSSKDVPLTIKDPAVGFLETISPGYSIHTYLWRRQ

[2] = molecular target: T2, Human GCS (Homo sapiens, UniProt Q16739); experiment: Evaluation of human GCS enzyme inhibitory activity (HL60 cell lysate, NBD-C6 ceramide, LC/MSMS); assay type: biochemical; details: 37° C. 90 min, read-out: GCS inhibition IC50
T2 construct: The lysate of HL60 cells were used in this assay; endogenous in cells; host or cells: HL60 cells (lysate supernatant)
T2 sequence (Q16739 1-394): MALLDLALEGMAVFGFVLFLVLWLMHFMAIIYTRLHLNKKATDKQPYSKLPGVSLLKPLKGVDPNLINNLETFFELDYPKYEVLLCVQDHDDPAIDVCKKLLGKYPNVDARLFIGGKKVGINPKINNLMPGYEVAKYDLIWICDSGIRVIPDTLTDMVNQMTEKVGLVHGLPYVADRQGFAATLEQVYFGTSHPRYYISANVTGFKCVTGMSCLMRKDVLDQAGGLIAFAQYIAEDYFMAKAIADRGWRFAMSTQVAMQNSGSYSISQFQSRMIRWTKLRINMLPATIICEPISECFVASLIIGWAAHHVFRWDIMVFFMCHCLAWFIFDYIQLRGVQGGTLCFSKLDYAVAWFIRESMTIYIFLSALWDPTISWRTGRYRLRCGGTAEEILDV

[3] = molecular target: T3, human GBA2 (Homo sapiens, UniProt Q9HCG7); experiment: Evaluation of human GBA2 enzyme inhibitory activity (GBA2-rich membrane suspension, 4-MUG); assay type: biochemical; details: GBA2-rich membrane of transfected HEK293T cells, CBE preincubation, read-out: GBA2 inhibition IC50
T3 construct: The complete open reading frames for GBA2 (human NM_020944.2) was amplified from human tissue; made in house; host or cells: HEK293T cells, transiently transfected (pCDNA-3.1); washed membrane pellet used as crude enzyme
T3 sequence (Q9HCG7 1-927): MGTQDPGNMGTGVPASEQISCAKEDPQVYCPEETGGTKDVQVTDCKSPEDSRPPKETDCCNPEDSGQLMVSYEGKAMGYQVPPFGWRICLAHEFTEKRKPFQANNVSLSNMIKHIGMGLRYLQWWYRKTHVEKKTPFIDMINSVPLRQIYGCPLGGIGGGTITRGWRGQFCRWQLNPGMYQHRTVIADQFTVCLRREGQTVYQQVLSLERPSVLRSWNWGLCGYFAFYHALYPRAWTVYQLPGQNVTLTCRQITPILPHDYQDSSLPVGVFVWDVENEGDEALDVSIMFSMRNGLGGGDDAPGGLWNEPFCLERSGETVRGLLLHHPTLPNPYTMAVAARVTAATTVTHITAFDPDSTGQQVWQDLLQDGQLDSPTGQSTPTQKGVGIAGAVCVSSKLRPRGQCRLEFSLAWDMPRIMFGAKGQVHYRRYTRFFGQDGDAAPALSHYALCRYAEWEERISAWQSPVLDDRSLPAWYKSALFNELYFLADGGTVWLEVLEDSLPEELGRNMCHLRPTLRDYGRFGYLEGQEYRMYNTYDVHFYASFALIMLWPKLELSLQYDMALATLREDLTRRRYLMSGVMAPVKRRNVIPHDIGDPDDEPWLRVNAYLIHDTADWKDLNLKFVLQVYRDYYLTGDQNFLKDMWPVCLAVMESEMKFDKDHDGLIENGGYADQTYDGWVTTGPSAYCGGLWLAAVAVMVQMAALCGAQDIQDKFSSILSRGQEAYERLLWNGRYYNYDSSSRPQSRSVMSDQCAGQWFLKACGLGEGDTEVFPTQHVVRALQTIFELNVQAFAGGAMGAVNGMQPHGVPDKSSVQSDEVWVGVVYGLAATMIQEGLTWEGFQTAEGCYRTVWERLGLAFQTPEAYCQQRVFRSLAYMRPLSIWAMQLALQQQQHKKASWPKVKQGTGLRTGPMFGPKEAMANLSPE

[4] = tested on: GBA1 (β-glucocerebrosidase mutation of N307S) in Gaucher's cell line GM00372; experiment: Evaluation of human GBA1 cellular activity (Gaucher's cell line, 6 days treatment); assay type: cell-based; details: GM00372 cells, DMSO-treated cells as negative control, normalized to protein
Protocol: The Gaucher's cell line with β-glucocerebrosidase mutation of N307S (Coriell Institute, Cat. GM00372) was cultured and expanded using EMEM with 15% FBS. The cell was passaged at least twice and could be used until the 20th passages. The cells were seeded at the density of 1.25×10^4 cells/well in 96-well plate. After cell culturing overnight, 50 μL of cell medium was discarded, and 50 μL of the diluted compound was added (with 0.3% DMSO). The cells were treated with compound for 6 days. On day 6, the cells were washed once with HBSS and incubated in HBSS for 3 h followed by lysing using 30 μL assay buffer (pH5.2 Mcllvaine buffer supplemented with 0.25% sodium taurocholate, 0.5% Triton X-100 and protease cocktail inhibitor) for 5 min at 4° C. on shaker. For GBA enzymatic assay, 15 μL of cell lysate was incubated with 5 μL of 4-MUG (6 mmol/L) for 60 min in 384 well format followed by adding 20 μL of stop solution (1 mmol/L glycine solution adjusted to pH10 using 1 mol/L NaOH). The reaction product of 4-MU was measured (excitation 355 nm, emission 450 nm) on fluorescence spectrophotometer. For the protein quantification, 4 μL of cell lysate was mixed with 36 μL of Pierce BCA reagents for 30 min. The protein was detected according to the manufacturer's instructions. Enzyme activity in cell lysate was normalized to protein concentration. The blank included substrate and assay buffer followed by addition of stop solution. Enzyme activity in cells treated with DMSO was used as a negative control, and results were represented as the percent change in enzyme activity in cells treated with each compound.

| IC50 [1] | IC50 [2] | IC50 [3] | Structure (SMILES) | Percent change in enzyme activity at test concentration 0.37 μM [4] | Percent change in enzyme activity at test concentration 1.1 μM [4] | Percent change in enzyme activity at test concentration 3.3 μM [4] | Percent change in enzyme activity at test concentration 10 μM [4] | Percent change in enzyme activity at test concentration […] [4] |
| --- | --- | --- | --- | --- | --- | --- | --- | --- |
| 1.2 µM | 0.19 µM | > 10 µM | CCOc1cc(COC[C@@H](F)CCCCN2C[C@H](O)[C@@H](O)[C@H](O)[C@@H](O)C2)ccc1F (single isomer, unassigned) [Example 72] | 214% | 248% | 259% | 284% | 160% |
| 1.7 µM | 0.03 µM | > 10 µM | O[C@H]1[C@H](O)[C@@H](O)CN(CCCC[C@H](F)COCc2csc(-c3ccc(F)cc3)n2)C[C@@H]1O (single isomer, unassigned) [Example 74] | 150% | 185% | 193% | 216% | 96% |
|  |  |  | Cc1nc(COC[C@@H](F)CCCCN2C[C@H](O)[C@@H](O)[C@H](O)[C@@H](O)C2)c(-c2cc(F)cc(F)c2)o1 (single isomer, unassigned) [Example 100] | 147% | 145% | 163% | 169% | 142% |
| 1.1 µM | 0.17 µM | > 10 µM | CCc1ccc(COC[C@@H](F)CCCCN2C[C@H](O)[C@@H](O)[C@H](O)[C@@H](O)C2)cc1 (single isomer, unassigned) [Example 101] | 157% | 209% | 219% | 227% | 157% |
| 1.2 µM | 0.13 µM | > 10 µM | O[C@H]1[C@H](O)[C@@H](O)CN(CCCC[C@H](F)COCc2ccc(Cl)cc2)C[C@@H]1O (single isomer, unassigned) [Example 107] | 110% | 141% | 157% | 199% | 109% |
| 3.2 µM | 0.67 µM | > 10 µM | Cc1ccc(COC[C@@H](F)CCCCN2C[C@H](O)[C@@H](O)[C@H](O)[C@@H](O)C2)cc1 (single isomer, unassigned) [Example 135] | 108% | 127% | 153% | 191% | 102% |
| 5.1 µM | 0.22 µM | > 10 µM | O[C@H]1[C@H](O)[C@@H](O)CN(CCCC[C@H](F)COCc2ccc(-c3cc(F)cc(F)c3)nn2)C[C@@H]1O (single isomer, unassigned) [Example 139] | 119% | 154% | 157% | 204% | 115% |
| 5.1 µM | 2 µM | > 10 µM | Cc1ccc(COCCCCCCN2C[C@H](O)[C@@H](O)[C@H](O)[C@@H](O)C2)cc1 [Example 1, (3S,4R,5R,6S)-1-{6-[(4-methylbenzyl)oxy]hexyl}-3,4,5,6-azepanetetrol] | 166% | 200% | 221% | 230% | 155% |
| 2.4 µM | 0.06 µM | > 10 µM | O[C@H]1[C@H](O)[C@@H](O)CN(CCCCCCOCc2csc(-c3cc(F)cc(F)c3)n2)C[C@@H]1O [Example 21, (3S,4R,5R,6S)-1-(6-{[2-(3,5-difluorophenyl)-1,3-thiazol-4-yl]methoxy}hexyl)-3,4,5,6-azepanetetrol] |  |  |  |  |  |
